Legend:
Solubility = format: physicochemical; conditions: water, methanol/ethanol
Text: There is also disclosed here a method of making a cosmetic ingredient with the chemical composition and structure of 4-hydroxy-oxindole-3-acetic acid. The chemical compound was identified in extracts of corn tassels. In particular, seasonally aromatic corn tassels were harvested as previously described in U.S. Pat. No. 7,399,493 with particular attention to harvesting the tassel at the peak time of aroma production. They were collected simply by shaking the tassels directly into collecting sacks conveyed to the laboratory where they are immersed directly into ice-cold absolute alcohol and extracted for 24-48 hours at 0-4° C. Crude alcohol extracts have a light green color and a fragrance reminiscent of bee's wax. The extract is further clarified low speed centrifugation followed by filtration through a 0.4 micron nitrocellulose filter and the resulting sterile solution stored at −20° C. until further needed or then concentrated by vacuum rotary evaporation to obtain a slightly viscous mass. This material served as the starting point for chemical analysis. Dilutions of the ice-cold crude extract was submitted to preliminary assessment of its anti-oxidant activity. High pressure liquid chromatography (HPLC) was employed to determine the principle phenolic components of the tassel extract. […]

human forearm skin = assay: Inhibition of skin irritation induced by 24-hour occlusion with benzalkonium chloride; format: in vivo; conditions: 0.01% (100 micrograms/milliliter) co-administered with 0.4% benzalkonium chloride, volar forearm, FIG. 5
Text: The anti-irritant activity of purified Tasselin A has been assessed by determining its ability to inhibit skin irritation induced by 24-hour occlusion of human forearm skin with a solution of 0.4% benzalkonium chloride (BC) with or without inclusion of 0.01% (100 micrograms/milliliter) of purified Tasselin A. FIG. 5 is a photograph of the volar surface of a subject forearm immediately after removal of the occlusive dressing. There are two circled skin areas: A) control site, and B) test site.

[1] = Storage stability of lyophilized powder; format: physicochemical; conditions: milligram quantities, under vacuum
Text: Given these physical properties, Tasselin A has been formulated in both lotion and cream as described in the Tables III, IV, and V below.

[2] = tested on: mushroom tyrosinase enzyme; assay: Anti-tyrosinase activity assay; format: biochemical; conditions: 150 microgram/ml, 30 minute test end-point; FIG. 7
Procedure: For this purpose, a modified assay method of anti-tyrosinase activity described in the literature was employed (Chang T S and Tseng M J., Mar. Sci. Technol., 14: 190-193, 2006). The assay employs mushroom tyrosinase enzyme to enzymatically convert a colorless solution tyrosine to a black melanin product. The anti-tyrosinase activity is measured by the reduction of black color development in the presence of the inhibitor, which in this instance is Tasselin A. FIG. 7 is a graph showing the inhibiting effect of two different concentrations of purified Tasselin A on tyrosinase activity as 50% reduction at a concentration of 150 microgram/ml over the 30 minute test end-point.

[3] = DPPH* free-radical scavenging assay; conditions: 100 microgram per milliliter in ethanol; FIG. 4
Procedure: Purified Tasselin A has been assayed and determined its free-radical scavenging activity. FIG. 4 present typical results of standardized 1,1-diphenyl-2-picrylhydrazyl radical (DPPH*) reagent test as previously described (Bonina et al, 2002). This test was previously disclosed and employed on crude corn tassel alcoholic extracts (Wille J J: U.S. Pat. No. 7,399,439). Here we confirm that purified Tasselin A has potent antioxidant activity. A 1.0 mg/ml stock solution of purified Tasselin A in ethanol was diluted with anhydrous ethanol to a final concentration of 100 microgram per milliliter and assayed in the DPPH* free-radical scavenging assay.

solubility (Solubility): both water and methanol/ethanol soluble
reduction of tyrosinase activity [2]: 50%
SMILES: O=C(O)CC1C(=O)Nc2cccc(O)c21 (centres unmarked) [Tasselin A, 2,3-dihydro-4-hydroxy-2-oxo-1H-indole-3-acetic acid]
visual scoring of skin irritation (swelling, erythema) at test site (human forearm skin): no swelling or redness
storage as dry powder [1]: successfully lyophilized and stored as a dry powder under vacuum for up to a year
reduction in absorbance measured at 595 nm [3]: 40%
